Source: PubChem BioAssay (NCI)
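At the GI50, growth is halved. TGI: concentration producing complete growth inhibition.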

Legend:
Experiment in all cases: inhibition of tumour cell growth, NCI panel, 384-well format
[1] = tested on: MDA-MB-468 breast
[2] = tested on: SW-620 colon
[3] = tested on: MALME-3M melanoma
[4] = tested on: HCT-116 colon
[5] = tested on: OVCAR-3 ovarian
[6] = tested on: T-47D breast
[7] = tested on: SK-MEL-2 melanoma
[8] = tested on: NCI-H522 lung
[9] = tested on: NCI-H226 lung
[10] = tested on: SF-295 CNS
[11] = tested on: 786-0 renal
[12] = tested on: SK-MEL-28 melanoma
[13] = tested on: UACC-62 melanoma
[14] = tested on: CAKI-1 renal
[15] = tested on: SR leukemia
[16] = tested on: BT-549 breast
[17] = tested on: UACC-257 melanoma
[18] = tested on: SNB-75 CNS
[19] = tested on: IGROV1 ovarian
[20] = tested on: NCI-H460 NSCLC
[21] = tested on: TK-10 renal
[22] = tested on: RXF 393 renal
[23] = tested on: COLO 205 colon
[24] = tested on: HCT-15 colon
[25] = tested on: SK-MEL-5 melanoma
[26] = tested on: SN12C renal
[27] = tested on: HT29 colon
[28] = tested on: A549 NSCLC
[29] = tested on: UO-31 renal
[30] = tested on: SF-539 CNS
[31] = tested on: OVCAR-5 ovarian
[32] = tested on: HS 578T breast
[33] = tested on: U251 glioblastoma
[34] = tested on: EKVX NSCLC
[35] = tested on: A498 renal
[36] = tested on: SF-268 CNS
[37] = tested on: K-562 leukemia
[38] = tested on: MOLT-4 leukemia
[39] = tested on: HOP-62 NSCLC
[40] = tested on: SNB-19 CNS
[41] = tested on: NCI-H23 lung
[42] = tested on: NCI-H322M lung
[43] = tested on: KM12 colon
[44] = tested on: ACHN renal
[45] = tested on: M14 melanoma
[46] = tested on: DU-145 prostate
[47] = tested on: PC-3 prostate
[48] = tested on: OVCAR-8 ovarian
[49] = tested on: MDA-MB-435 melanoma
[50] = tested on: MCF7 breast
[51] = tested on: HL-60(TB) leukemia
[52] = tested on: OVCAR-4 ovarian
[53] = tested on: HOP-92 NSCLC
[54] = tested on: MDA-MB-231 breast
[55] = tested on: SK-OV-3 ovarian
[56] = tested on: HCC-2998 colon
[57] = tested on: NCI/ADR-RES ovarian
[58] = tested on: LOX IMVI melanoma
[59] = tested on: RPMI-8226 leukemia
[60] = tested on: CCRF-CEM leukemia

CC(C)N(C[C@H]1O[C@@H](n2cnc3c(N)ncnc32)[C@H](O)[C@@H]1O)C1CC(CCc2nc3ccc(C(C)(C)C)cc3[nH]2)C1 (stereo not given in full)
GI50 [1]: 24.8 µM
TGI [1]: 50.1 µM
GI50 [2]: 52.3 µM
TGI [2]: > 100 µM
GI50 [3]: 18 µM
TGI [3]: 32 µM
GI50 [4]: 41.9 µM
TGI [4]: > 100 µM
GI50 [5]: 49.6 µM
TGI [5]: > 100 µM
GI50 [6]: 39 µM
TGI [6]: > 100 µM
GI50 [7]: 15.8 µM
TGI [7]: 29.3 µM
GI50 [8]: 20.1 µM
TGI [8]: 35.3 µM
GI50 [9]: > 100 µM
TGI [9]: > 100 µM
GI50 [10]: > 100 µM
TGI [10]: > 100 µM
GI50 [11]: > 100 µM
TGI [11]: > 100 µM
GI50 [12]: 18 µM
TGI [12]: 31.9 µM
GI50 [13]: 16.9 µM
TGI [13]: 30.7 µM
GI50 [14]: > 100 µM
TGI [14]: > 100 µM
GI50 [15]: 17.9 µM
TGI [15]: 31.8 µM
GI50 [16]: 18 µM
TGI [16]: 32.5 µM
GI50 [17]: 18.5 µM
TGI [17]: 33.4 µM
GI50 [18]: 22.5 µM
TGI [18]: 44.9 µM
GI50 [19]: 51 µM
TGI [19]: > 100 µM
GI50 [20]: 20.3 µM
TGI [20]: 43 µM
GI50 [21]: 83.9 µM
TGI [21]: > 100 µM
GI50 [22]: 25.3 µM
TGI [22]: 79 µM
GI50 [23]: 25.6 µM
TGI [23]: 58.6 µM
GI50 [24]: > 100 µM
TGI [24]: > 100 µM
GI50 [25]: 23.9 µM
TGI [25]: 69.4 µM
GI50 [26]: > 100 µM
TGI [26]: > 100 µM
GI50 [27]: 19.1 µM
TGI [27]: 35.3 µM
GI50 [28]: > 100 µM
TGI [28]: > 100 µM
GI50 [29]: > 100 µM
TGI [29]: > 100 µM
GI50 [30]: 43.9 µM
TGI [30]: > 100 µM
GI50 [31]: > 100 µM
TGI [31]: > 100 µM
GI50 [32]: 20.5 µM
TGI [32]: 37 µM
GI50 [33]: 41.7 µM
TGI [33]: > 100 µM
GI50 [34]: 88.1 µM
TGI [34]: > 100 µM
GI50 [35]: > 100 µM
TGI [35]: > 100 µM
GI50 [36]: 22.9 µM
TGI [36]: 47.9 µM
GI50 [37]: 31 µM
TGI [37]: > 100 µM
GI50 [38]: 18.8 µM
TGI [38]: 32.8 µM
GI50 [39]: > 100 µM
TGI [39]: > 100 µM
GI50 [40]: > 100 µM
TGI [40]: > 100 µM
GI50 [41]: 46.6 µM
TGI [41]: > 100 µM
GI50 [42]: > 100 µM
TGI [42]: > 100 µM
GI50 [43]: 39 µM
TGI [43]: > 100 µM
GI50 [44]: > 100 µM
TGI [44]: > 100 µM
GI50 [45]: 20 µM
TGI [45]: 37.1 µM
GI50 [46]: > 100 µM
TGI [46]: > 100 µM
GI50 [47]: 47 µM
TGI [47]: > 100 µM
GI50 [48]: > 100 µM
TGI [48]: > 100 µM
GI50 [49]: 17.9 µM
TGI [49]: 31.8 µM
GI50 [50]: 20 µM
TGI [50]: 45.2 µM
GI50 [51]: 13.3 µM
TGI [51]: 26 µM
GI50 [52]: 79.9 µM
TGI [52]: > 100 µM
GI50 [53]: 19.2 µM
TGI [53]: 40.9 µM
GI50 [54]: 35.4 µM
TGI [54]: > 100 µM
GI50 [55]: > 100 µM
TGI [55]: > 100 µM

CS[C@@]1(C(=O)Nc2ccc3[nH]nc(-c4ccc(OC(C)C)nc4)c3c2)CCN(CC(=O)N2CC=C(c3ccc(-c4ncn(C)n4)cc3)CC2)C1
GI50 [56]: 0.0242 µM
TGI [56]: 0.222 µM
GI50 [1]: 0.907 µM
TGI [1]: 7.33 µM
GI50 [2]: 0.112 µM
TGI [2]: > 100 µM
TGI [3]: 0.0221 µM
GI50 [4]: 0.122 µM
TGI [4]: 2.39 µM
GI50 [5]: 5.37 µM
TGI [5]: > 100 µM
GI50 [6]: 5.69 µM
TGI [6]: > 100 µM
GI50 [7]: 0.0386 µM
TGI [7]: 0.207 µM
GI50 [8]: 7.97 µM
TGI [8]: > 100 µM
GI50 [9]: 0.595 µM
TGI [9]: 21.6 µM
GI50 [10]: 12.8 µM
TGI [10]: > 100 µM
GI50 [11]: 1.77 µM
TGI [11]: > 100 µM
GI50 [57]: 3.77 µM
TGI [57]: > 100 µM
TGI [12]: 0.0583 µM
GI50 [13]: 0.011 µM
TGI [13]: 0.215 µM
GI50 [58]: 0.0904 µM
TGI [58]: 0.267 µM
GI50 [14]: 0.273 µM
TGI [14]: > 100 µM
GI50 [15]: 0.375 µM
TGI [15]: 4 µM
GI50 [16]: 2.03 µM
TGI [16]: > 100 µM
GI50 [59]: 0.536 µM
TGI [59]: 2.44 µM
GI50 [17]: 0.0167 µM
TGI [17]: 0.0976 µM
GI50 [19]: 0.514 µM
TGI [19]: > 100 µM
GI50 [20]: 0.884 µM
TGI [20]: > 100 µM
GI50 [21]: 0.561 µM
TGI [21]: > 100 µM
GI50 [22]: 0.354 µM
TGI [22]: 2.2 µM
GI50 [23]: 0.02 µM
TGI [23]: 0.194 µM
GI50 [24]: 2.82 µM
TGI [24]: > 100 µM
GI50 [25]: 0.0589 µM
TGI [25]: 1.73 µM
GI50 [26]: 3.37 µM
TGI [26]: > 100 µM
GI50 [27]: 0.0431 µM
TGI [27]: > 100 µM
GI50 [28]: 0.302 µM
TGI [28]: > 100 µM
GI50 [29]: 0.81 µM
TGI [29]: > 100 µM
GI50 [60]: 5.12 µM
TGI [60]: > 100 µM
GI50 [30]: 1.36 µM
TGI [30]: 47.8 µM
GI50 [31]: 0.108 µM
TGI [31]: > 100 µM
GI50 [33]: 1.53 µM
TGI [33]: > 100 µM
GI50 [35]: 2.52 µM
TGI [35]: > 100 µM
GI50 [36]: > 100 µM
TGI [36]: > 100 µM
GI50 [37]: 0.819 µM
TGI [37]: > 100 µM
GI50 [38]: 2.56 µM
TGI [38]: 8.65 µM
GI50 [39]: 0.476 µM
TGI [39]: > 100 µM
GI50 [41]: 0.0171 µM
TGI [41]: 0.136 µM
GI50 [42]: 0.438 µM
TGI [42]: > 100 µM
GI50 [43]: 0.297 µM
TGI [43]: > 100 µM
GI50 [44]: 2.25 µM
TGI [44]: > 100 µM
GI50 [45]: 0.0125 µM
TGI [45]: 0.109 µM
GI50 [46]: 61.6 µM
TGI [46]: > 100 µM
GI50 [47]: 18.8 µM
TGI [47]: > 100 µM
GI50 [48]: 5.37 µM
TGI [48]: > 100 µM
GI50 [49]: 0.0963 µM
TGI [49]: > 100 µM
GI50 [50]: > 100 µM
TGI [50]: > 100 µM
GI50 [51]: 0.0437 µM
TGI [51]: 1.35 µM
GI50 [52]: 1.8 µM
TGI [52]: > 100 µM
GI50 [53]: 0.189 µM
TGI [53]: 0.631 µM
GI50 [54]: 0.373 µM
TGI [54]: 34.3 µM
GI50 [55]: 17.2 µM
TGI [55]: > 100 µM
